What was measured:
Format in all cases: cell-based
[1] = test system: MHH-CALL-4 cells; assay: Cytotoxicity assay (resazurin, 72 hours); parameters: AUC: unit not given beside the values; conditions: for EC50: MHHCALL4, resazurin; for AUC: area under the dose-response curve
Method: Cytotoxicity assay: MHH-CALL-4 cells were maintained in RPMI1640 medium (Invitrogen) supplemented with 10% FBS (Hyclone), Penicillin/Streptomycin (100 units/mL) and Glutamine (100 μM). 2×10^5 cells were seeded in 100 μl medium/well in 96 well assay plates (Corning 3603). Assays were performed in triplicate; compounds to be screened were added to assay plates from DMSO stock solutions by pin transfer using 50SS pins (V&P Scientific). The assay plates incubated at 37° C. in 5% CO2 for 72 hours. Cells were then incubated for four hours with resazurin (Sigma) solution and read on a Synergy HT plate reader (Biotek, Winooski, VT). High-throughput assay data was analyzed using our in-house Robust Interpretation of Screening Experiments (RISE) application written in Pipeline Pilot (Biovia, v. 17.2.0) and the R program (R Core Team, 2013). All the AUC (area under the dose-response curve) per compound calculated from its dose response curve by RISE protocol. Selected data were plotted and analyzed by GraphPad Prism software v7 using non-linear regression curve fitting.

[2] = molecular target: T1, JAK1 (Homo sapiens, UniProt P23458); assay: Western blot assay, JAK1 protein degradation; conditions: MHH-CALL-4 cells, vehicle control = 100%
T1 construct: endogenous in cells; host or cells: MHH-CALL-4
Method: (§1) Western blot assay: MHH-CALL-4 Cells were washed twice with ice-cold PBS and lysed in RIPA lysis buffer (Sigma) freshly supplemented with Halt™ Protease Inhibitor Cocktail (ThermoFisher) for 15 minutes on ice. The cell pellet was removed by centrifugation at 13,000 g at 4° C. for 15 minutes. Protein concentration was measured by BCA assay (Thermo Fisher Scientific). Proteins were denatured in NuPAGE LDS 4× sample buffer supplemented with reducing agents (Invitrogen). Typically, 10-20 μg of total protein was loaded per lane on a 4%-12% NUPAGE Bis-Tris gradient gel (Invitrogen) and analyzed by standard immunoblotting and imaged using Li—COR Odyssey CLx (LI-COR Biotechnology, Lincoln, NE). To access the protein degradation, the signal of target protein was normalized by the signal of ACBT and the signal of vehicle control was set as 100%. Primary antibodies used were: JAK1 (Cell Signaling #3332S), JAK2 (#3230S), JAK3 (#8827S), TYK2 (#9312S), GSPT1 (#14980S), CRBN (#71810S), IKZF1 (Santa Cruz Biotechnology, SC-398265) and ACBT (Santa Cruz Biotechnology, SC-47778).

[3] = test system: JAK2; assay: Western blot assay, JAK2 protein degradation; conditions: MHH-CALL-4 cells, vehicle control = 100%
Method: as §1

[4] = molecular target: T2, JAK3 (Homo sapiens, UniProt P52333); assay: Western blot assay, JAK3 protein degradation; conditions: MHHCALL4; 100 nM, 24 h; MHH-CALL-4 cells; vehicle control = 100%; read-out: Target Protein Degradation (% remaining at 100 nM, 24 h) JAK3
T2 construct: endogenous in cells; host or cells: MHH-CALL-4
T2 sequence (P52333 1-1124): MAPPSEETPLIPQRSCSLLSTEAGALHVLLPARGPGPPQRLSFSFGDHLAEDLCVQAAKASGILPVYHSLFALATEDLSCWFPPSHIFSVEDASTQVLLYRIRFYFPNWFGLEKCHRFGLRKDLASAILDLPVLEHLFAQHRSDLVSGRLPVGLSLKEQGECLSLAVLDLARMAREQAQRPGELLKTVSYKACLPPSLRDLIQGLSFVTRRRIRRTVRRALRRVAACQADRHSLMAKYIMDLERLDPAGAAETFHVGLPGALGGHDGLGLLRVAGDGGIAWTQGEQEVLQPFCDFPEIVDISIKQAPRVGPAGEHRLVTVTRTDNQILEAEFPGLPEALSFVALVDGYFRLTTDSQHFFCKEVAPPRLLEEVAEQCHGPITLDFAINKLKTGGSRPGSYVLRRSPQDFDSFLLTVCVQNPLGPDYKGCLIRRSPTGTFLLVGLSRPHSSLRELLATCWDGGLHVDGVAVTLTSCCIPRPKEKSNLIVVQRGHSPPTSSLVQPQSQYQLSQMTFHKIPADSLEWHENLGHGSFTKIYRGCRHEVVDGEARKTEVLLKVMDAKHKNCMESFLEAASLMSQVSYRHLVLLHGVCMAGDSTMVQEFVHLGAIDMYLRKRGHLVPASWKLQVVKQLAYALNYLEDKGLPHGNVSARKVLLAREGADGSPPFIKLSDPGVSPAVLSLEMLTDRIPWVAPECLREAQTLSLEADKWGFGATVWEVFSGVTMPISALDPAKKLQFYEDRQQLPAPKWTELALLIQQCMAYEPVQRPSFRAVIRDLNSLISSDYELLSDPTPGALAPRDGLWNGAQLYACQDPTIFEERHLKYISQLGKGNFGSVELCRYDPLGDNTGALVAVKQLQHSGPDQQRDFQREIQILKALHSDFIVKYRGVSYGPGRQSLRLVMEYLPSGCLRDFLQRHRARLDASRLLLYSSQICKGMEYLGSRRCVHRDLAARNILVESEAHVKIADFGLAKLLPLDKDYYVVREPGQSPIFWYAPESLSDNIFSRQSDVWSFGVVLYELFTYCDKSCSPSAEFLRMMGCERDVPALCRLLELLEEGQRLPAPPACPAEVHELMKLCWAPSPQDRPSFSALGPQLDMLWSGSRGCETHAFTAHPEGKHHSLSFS
Method: as §1

[5] = molecular target: T3, GSPT1 (Homo sapiens, UniProt P15170); assay: Western blot assay, GSPT1 neosubstrate degradation; conditions: MHHCALL4; 100 nM, 24 h; MHH-CALL-4 cells; vehicle control = 100%
T3 construct: endogenous in cells; host or cells: MHH-CALL-4
Method: as §1

T3 sequence (P15170 whole entry): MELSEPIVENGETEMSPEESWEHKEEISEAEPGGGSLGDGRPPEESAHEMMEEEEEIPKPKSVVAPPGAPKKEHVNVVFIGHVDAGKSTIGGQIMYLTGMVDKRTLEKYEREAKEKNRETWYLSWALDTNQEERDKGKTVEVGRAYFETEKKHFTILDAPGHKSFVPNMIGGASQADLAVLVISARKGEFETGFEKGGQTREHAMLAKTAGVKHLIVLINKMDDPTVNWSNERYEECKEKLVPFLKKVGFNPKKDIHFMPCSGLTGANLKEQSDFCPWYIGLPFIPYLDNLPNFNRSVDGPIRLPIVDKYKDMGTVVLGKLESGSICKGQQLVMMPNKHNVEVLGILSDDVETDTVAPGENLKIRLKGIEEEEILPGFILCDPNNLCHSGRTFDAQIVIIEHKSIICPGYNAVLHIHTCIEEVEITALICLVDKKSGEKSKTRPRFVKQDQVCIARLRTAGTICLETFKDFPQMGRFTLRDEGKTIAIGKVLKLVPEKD
T1 sequence (P23458 whole entry): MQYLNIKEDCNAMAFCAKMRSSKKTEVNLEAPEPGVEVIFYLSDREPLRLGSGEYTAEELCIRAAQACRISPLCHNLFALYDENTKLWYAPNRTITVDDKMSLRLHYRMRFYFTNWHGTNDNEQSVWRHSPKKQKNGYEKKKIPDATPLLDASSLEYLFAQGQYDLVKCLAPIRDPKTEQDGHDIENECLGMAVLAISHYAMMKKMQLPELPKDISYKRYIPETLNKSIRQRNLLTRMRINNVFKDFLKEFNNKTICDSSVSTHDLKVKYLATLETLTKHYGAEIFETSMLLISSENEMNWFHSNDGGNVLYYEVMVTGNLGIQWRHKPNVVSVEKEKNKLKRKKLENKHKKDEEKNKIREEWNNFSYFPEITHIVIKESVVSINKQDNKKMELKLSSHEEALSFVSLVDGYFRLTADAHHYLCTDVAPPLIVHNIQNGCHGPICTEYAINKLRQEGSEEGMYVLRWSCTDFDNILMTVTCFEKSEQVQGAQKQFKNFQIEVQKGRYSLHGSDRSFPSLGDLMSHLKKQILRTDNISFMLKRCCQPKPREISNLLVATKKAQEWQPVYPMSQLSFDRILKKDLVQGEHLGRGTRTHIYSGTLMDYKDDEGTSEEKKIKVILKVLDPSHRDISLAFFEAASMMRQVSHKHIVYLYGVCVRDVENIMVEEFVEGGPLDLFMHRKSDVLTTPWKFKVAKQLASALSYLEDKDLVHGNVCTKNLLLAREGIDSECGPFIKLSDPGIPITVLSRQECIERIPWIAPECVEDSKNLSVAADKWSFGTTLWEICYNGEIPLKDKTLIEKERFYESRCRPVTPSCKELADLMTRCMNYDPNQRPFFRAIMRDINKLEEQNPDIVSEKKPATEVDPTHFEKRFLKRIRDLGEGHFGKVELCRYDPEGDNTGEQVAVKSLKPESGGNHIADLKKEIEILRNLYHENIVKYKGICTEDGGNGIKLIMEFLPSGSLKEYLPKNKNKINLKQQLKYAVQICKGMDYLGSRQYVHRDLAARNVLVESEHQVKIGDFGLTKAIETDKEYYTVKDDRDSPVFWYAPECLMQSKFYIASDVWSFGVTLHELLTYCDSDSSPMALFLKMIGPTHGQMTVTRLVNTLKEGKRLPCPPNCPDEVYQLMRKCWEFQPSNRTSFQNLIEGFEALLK

SMILES	EC50 [1] [nM]	AUC [1]	Target Protein Degradation (% remaining at 100 nM, 24 h) JAK1 [2] [% remaining]	Target Protein Degradation (% remaining at 100 nM, 24 h) JAK2 [3] [% remaining]	remaining activity at 0.1 µM [4] [%]	remaining activity at 0.1 µM [5] [%]
CCS(=O)(=O)N1CC(CC#N)(n2cc(-c3nc(Nc4ccc(C(=O)NCCCCN5CCN(c6ccc(C7CCC(=O)NC7=O)cc6)CC5)cc4)nc4[nH]ccc34)cn2)C1 (stereo not drawn) [Compound 19]	1450	225	87	34	112	129
CCS(=O)(=O)N1CC(CC#N)(n2cc(-c3nc(Nc4ccc(C(=O)NCCCCN5CCN(c6ccc7c(c6)C(=O)N(C6CCC(=O)NC6=O)C7=O)CC5)cc4)nc4[nH]ccc34)cn2)C1 (stereo not drawn) [Compound 20]	13.6	123	138	40	102	128
N#CC[C@H](C1CCCC1)n1cc(-c2nc(Nc3ccc(C(=O)NCCN4CCN(c5ccc6c(c5)C(=O)N(C5CCC(=O)NC5=O)C6=O)CC4)cc3)nc3[nH]ccc23)cn1 (stereo partly drawn) [Compound 22]	18.1	141	72	36	61	103
N#CC[C@@H](C1CCCC1)n1cc(-c2nc(Nc3ccc(C(=O)NCCCN4CCN(c5ccc6c(c5)C(=O)N(C5CCC(=O)NC5=O)C6=O)CC4)cc3)nc3[nH]ccc23)cn1 (stereo partly drawn) [Compound 23]	30.9	79	145	67	109	155
CCS(=O)(=O)C1CC(CC#N)(n2cc(-c3nc(Nc4ccc(C(=O)N5CCC(c6ccc7c(c6)C(=O)N(C6CCC(=O)NC6=O)C7=O)CC5)cc4)nc4[nH]ccc34)cn2)C1 (stereo not drawn) [Compound 27]	289	143	107	68	92	118
CCS(=O)(=O)N1CC(CC#N)(n2cc(-c3nc(Nc4ccc(C(=O)NCCCN5CCC(c6ccc7c(c6)CN(C6CCC(=O)NC6=O)C7=O)CC5)cc4)nc4[nH]ccc34)cn2)C1 (stereo not drawn) [Compound 28]	16.8	223.00	112	83	97	127
CCS(=O)(=O)C1CC(CC#N)(n2cc(-c3nc(Nc4ccc(C(=O)NC5CCN(c6ccc7c(c6)C(=O)N(C6CCC(=O)NC6=O)C7=O)CC5)cc4)nc4[nH]ccc34)cn2)C1 (stereo not drawn) [Compound 29]	4.3	262	64	14	62	51
CCS(=O)(=O)C1CC(CC#N)(n2cc(-c3nc(Nc4ccc(C(=O)NC5CCN(c6cccc7c6C(=O)N(C6CCC(=O)NC6=O)C7=O)CC5)cc4)nc4[nH]ccc34)cn2)C1 (stereo not drawn) [Compound 30]	0.3	215.00	105	88	77	140
CCS(=O)(=O)N1CC(CC#N)(n2cc(-c3nc(Nc4ccc(C(=O)NCC5CCN(c6ccc7c(c6)C(=O)N(C6CCC(=O)NC6=O)C7=O)CC5)cc4)nc4[nH]ccc34)cn2)C1 (stereo not drawn) [Compound 31]	2.1	260	58	18	54	61
CCS(=O)(=O)N1CC(CC#N)(n2cc(-c3nc(Nc4ccc(C(=O)NCCC5CCN(c6ccc7c(c6)C(=O)N(C6CCC(=O)NC6=O)C7=O)CC5)cc4)nc4[nH]ccc34)cn2)C1 (stereo not drawn) [Compound 32]	1.3	251	69	21	56	46
CCS(=O)(=O)N1CC(CC#N)(n2cc(-c3nc(Nc4ccc(C(=O)NCCCNC(=O)COc5cccc(C6CCC(=O)NC6=O)c5)cc4)nc4[nH]ccc34)cn2)C1 (stereo not drawn) [Compound 33]	0.7	185	83	74	71	89
CCS(=O)(=O)N1CC(CC#N)(n2cc(-c3nc(Nc4ccc(C(=O)NCCCCCCCNc5cccc(C6CCC(=O)NC6=O)c5)cc4)nc4[nH]ccc34)cn2)C1 (stereo not drawn) [Compound 34]	31	210	90	71	69	74
